Laboratory results reported in patent US11793775B2, “Combined therapy for treating Alzheimer's disease” (MERRY LIFE BIOMEDICAL COMPANY, LTD., priority 2021, dated 2023).

Columns and labels:
[1] = Stability of TML-6 in TML-6 diet by LC/MS/MS; type: physicochemical; settings: rodent chow supplemented with TML-6, LC/MS/MS
Protocol: TML-6, a small molecule curcumin analog, was used in this study. A regular rodent chow (Laboratory Rodent Diet 5001) supplemented with TML-6 at 100 mg/kg rodent chow was provided by Merry Life Biomedical company, Ltd. Content, purity, and stability of TML-6 in TML-6 diet at different storage conditions were analyzed using LC/MS/MS via service provided by the Development Center for Biotechnology, Taiwan. TML-6 diet was stored at 4° C. and was added to mouse cages twice a week for ad libitum feeding regimens. Daily uptake of TML-6 in APP/PS1 mice was estimated based on average consumption of rodent chow supplemented with TML-6 at 100 mg/kg chow for 24 hr or 8 days. Briefly, three APP/PS1 mice were housed individually in metabolic cages with an apparatus for measuring food-intake. Estimated TML-6 uptake per kg body weight per day was calculated by multiplying the daily consumption of TML-6 supplemented chow by the amount of TML-6 in the chow divided by body weight.

[2] = system: Aβ plaques; assay: Aβ plaque deposition by Amylo-glo staining of brain sections; type: in vivo; settings: cortex and hippocampus, APP/PS1 mice at 7 months, 4 months treatment, vs APP/PS1 controls
Protocol: (§1) For study of combination treatment, APP/PS1 mice were randomly assigned into four groups and were subjected to the treatments at 3 months of age (the early/prodromal stage of AD) for 4 months. Wt littermates (n=10) were also included for behavioral tests as a WT control group at 7 months. […] Body weight was recorded weekly. After 4 months of treatments, mice at age of 7 months were subjected to the following examinations.
(§2) Brain sections were fixed in 4% paraformaldehyde followed by cryoprotection with 30% sucrose in 1×PBS. Floating sections at 30 μm thickness were stored in 1×PBS with 0.05% sodium azide at 4° C. until use. Amylo-Glo RTD™ (TR-400-AG, Biosensis, Thebarton, Australia) was used for detection of amyloid-β (Aβ) plaques in the brain sections per manufacturer's instruction. The sections were mounted on the slide covered with mounting medium (Vectashield H-1000, Vector Laborotories, Burlingame, Calif., USA). Images were acquired using Leica confocal microscopy imaging system. Numbers of Aβ deposits and fluorescent area positive for AP deposits were normalized with total area of the section using MetaMorph imaging software. Quantification for sizes of AP deposits larger or smaller than 500 μm^2 were presented. […]

[3] = system: APP/PS1 mice; assay: Nesting test; type: in vivo
Protocol: as §1
Before the test for nesting, mice were individually housed for 5 hr. A nestlet pressed-cotton square (Ancare) was then placed into each cage 1 hour before the start of the dark cycle. Pictures of a nestlet were taken at indicated time points, and the entire test underwent for 52 hr. Nest construction was scored by two persons unaware of treatments using a 5-point scaling system as described previously (Yeh et al. 2015). Briefly, a score of 1 indicates a >90% intact nestlet, whereas a score of 5 indicates a <10% intact nestlet and the construction of a nest with an obvious crater.

[4] = system: APP/PS1 mice; assay: Morris water maze; type: in vivo; settings: training course, compared with wt
Protocol: as §1
To evaluate spatial learning and memory deficits in APP/PS1 mice, a circular pool of 120 cm in diameter and 40 cm in height was used. The pool was filled with milk at 22-24 ° C. to approximately 20 cm in deep. A hidden platform was submerged 1 cm below the surface of milk. All experimental mice were transferred to the behavior testing room 30 min prior to the water maze to habituate to the test environment. During the training course, mice received 3 trials per day with a 60-minute inter-trial interval for 6 days. Probe test without the hidden platform was performed at day 7 and mice were allowed to investigate for 60 seconds. An overhead camera and a computerized video imaging analysis system were used to analyze the swimming paths and the escape latency.

[5] = system: microglia; assay: Microglial Aβ phagocytosis by co-localization of Iba1 and Aβ plaques; type: in vivo; settings: brain of APP/PS1 mice, FIG. 5A
Protocol: as §1
as §2, with “Numbers of Aβ deposits and fluorescent area positive for AP deposits were normalized with total area of the section using MetaMorph imaging software.” left out
Since microglia are primary immune cells in the brain responsible for Aβ clearance, treatment effects on microglial Aβ phagocytosis was evaluated by co-localization of microglia and Aβ plaques using confocal microscopy.

[6] = system: microglia; assay: Morphological analyses of microglia (neurite outgrowth analyses); type: in vivo, APP/PS1 mice; settings: total length of cell-associated skeletonized outgrowth, FIG. 5G

Which “amount of TML-6 in rodent chow at various storage conditions” value [1] does the source give for `CCN(CC)C(=O)CC(C)(C(=O)/C=C/c1ccc(OC)c(OC)c1)C(=O)/C=C/c1ccc(OC)c(OC)c1` [TML-6] here?
Its value is “stable”.

And the “Aβ depositions (Amylo-glo staining)” value [2]?
Its value is “lower levels of Aβ depositions”.

What about the nesting scores ([3]; two-way ANOVA, vs APP/PS1 controls, FIG. 4A) of the same compound?
Its nesting scores is “significant improvements”.

What about the “slopes of nesting scores, p (linear regression)” value ([3]; vs APP/PS1 controls, FIG. 4B) of the same compound?
The value was 0.07173.

What about the “slopes of nesting scores, p (linear regression)” value ([3]; vs wt) of the same compound?
Its value is 0.1648.

What about the “latency of finding the hidden platform” value [4] of the same compound?
The value was “comparable to that of wt”.

What about the “microglial Aβ phagocytosis (co-localization of Iba1 and Aβ plaques)” value [5] of the same compound?
Its value is “not affected”.

And the “total outgrowth of microglia” value [6]?
Its value is “increased”.
